Assays:
Type in all cases: cell-based, mouse
[1] = system: α7 integrin (LacZ reporter in α7βgal+/− myoblasts); assay: Myoblast α7+/LacZ integrin FDG assay (Burkin assay in myoblasts, 96-well); details: α7+/LacZ myoblasts, 96-well
[2] = system: α7 integrin (LacZ reporter in α7+/LacZ myotubes); assay: Myotube α7 integrin FDG assay (Burkin assay in myotubes, 96-well)
[3] = system: β-galactosidase in CMV-LacZ C2C12 myotubes; assay: CMV-LacZ secondary screen in C2C12 myotubes (β-Gal stabilizing assay); details: C2C12 CMV-LacZ myotubes, fold relative to DMSO
Description: In order to determine compounds that acted to stabilize β-gal in myogenic cells, a CMV-LacZ C2C12 cell line was used in a secondary screen. The EGFP gene from the pEGFP (Clontech) vector was replaced by LACZ PCR product with digests of the vector/PCR product performed using EcoRI (NEB) and NotI (NEB) and ligated using T4 DNA Ligase (NEB) following standard procedures to produce the CMV-LACZ vector. The LACZ gene was generated by PCR from the pBK-RSV (Stratagene) vector using primers LACZ EcoRI F- and LACZ NotI R-. The CMV-LACZ vector was then digested with AfIII (NEB) to linearize the construct, which was then transfected in C2C12 myoblasts using Lipofectamine 2000 (Invitrogen) following the manufacturer's instructions. […] Clonal lines were selected and screened for βgal levels using the myoblast FDG assay.
The assays were used the original 96-well format and new dose-response curves for myoblasts (N=3-6 replicates for each data point), myotubes (N=3-6 replicates for data point), and CMV-LacZ secondary assay (N=2 replicates for each data point) using concentrations of 0.5 μM, 1 μM, 5 μM, 10 μM, 20 μM, and 40 μM (Tables 9-16).

In the case of OC1(c2ccccc2)C/C(=N\n2cnnc2)C=C1c1ccccc1 (stereo not drawn) [MLS000081838-01], the “Burkin Assay in Myoblasts, value relative to DMSO” value ([1]; 0.5 uM) is reported as 1.0627, the “Burkin Assay in Myoblasts, value relative to DMSO” value ([1]; 1 uM) is reported as 1.047 and the “Burkin Assay in Myoblasts, value relative to DMSO” value ([1]; 5 uM) is reported as 0.9611. The “Burkin Assay in Myoblasts, value relative to DMSO” value ([1]; 10 uM) was 0.9253, the “Burkin Assay in Myoblasts, value relative to DMSO” value ([1]; 20 uM) was 0.9822 and the “Burkin Assay in Myoblasts, value relative to DMSO” value ([1]; 40 uM) was 0.9234. For the same molecule, the “Burkin Assay in Myotubes (signal relative to DMSO)” value ([2]; 0.5 uM) was 0.7425, the “Burkin Assay in Myotubes (signal relative to DMSO)” value ([2]; 1 uM) was 1.018 and the “Burkin Assay in Myotubes (signal relative to DMSO)” value ([2]; 5 uM) was 0.9002. For the same molecule, the “Burkin Assay in Myotubes (signal relative to DMSO)” value ([2]; 10 uM) was 0.8704, the “Burkin Assay in Myotubes (signal relative to DMSO)” value ([2]; 20 uM) was 1.225 and the “Burkin Assay in Myotubes (signal relative to DMSO)” value ([2]; 40 uM) was 1.036. The “CMV-LACZ in Myotubes, signal relative to DMSO” value ([3]; 5 uM) was 0.9175, the “CMV-LACZ in Myotubes, signal relative to DMSO” value ([3]; 10 uM) was 0.8889 and the “CMV-LACZ in Myotubes, signal relative to DMSO” value ([3]; 20 uM) was 1.018. For the same molecule, the “CMV-LACZ in Myotubes, signal relative to DMSO” value ([3]; 40 uM) was 0.9697.

CC(=O)Nc1nonc1-c1nc2ccccc2n1CCC(C)C [MLS000085522-01] was tested, and the “Burkin Assay in Myoblasts, signal relative to DMSO” value ([1]; 0.5 uM) was 0.9927, the “Burkin Assay in Myoblasts, signal relative to DMSO” value ([1]; 1 uM) was 0.872 and the “Burkin Assay in Myoblasts, signal relative to DMSO” value ([1]; 5 uM) was 1.118. For the same molecule, the “Burkin Assay in Myoblasts, signal relative to DMSO” value ([1]; 10 uM) was 0.9531, the “Burkin Assay in Myoblasts, signal relative to DMSO” value ([1]; 20 uM) was 0.9728 and the “Burkin Assay in Myoblasts, signal relative to DMSO” value ([1]; 40 uM) was 0.7481. For the same molecule, the “Burkin Assay in Myotubes, α7 integrin LacZ reporter signal relative to DMSO” value ([2]; 0.5 uM) was 0.9622, the “Burkin Assay in Myotubes, α7 integrin LacZ reporter signal relative to DMSO” value ([2]; 1 uM) was 0.8415 and the “Burkin Assay in Myotubes, α7 integrin LacZ reporter signal relative to DMSO” value ([2]; 5 uM) was 0.872. The “Burkin Assay in Myotubes, α7 integrin LacZ reporter signal relative to DMSO” value ([2]; 10 uM) was 0.9249, the “Burkin Assay in Myotubes, α7 integrin LacZ reporter signal relative to DMSO” value ([2]; 20 uM) was 1.029 and the “Burkin Assay in Myotubes, α7 integrin LacZ reporter signal relative to DMSO” value ([2]; 40 uM) was 0.556. The “CMV-LACZ in Myotubes, signal relative to DMSO” value ([3]; 5 uM) was 1.092, the “CMV-LACZ in Myotubes, signal relative to DMSO” value ([3]; 10 uM) was 0.9804 and the “CMV-LACZ in Myotubes, signal relative to DMSO” value ([3]; 20 uM) was 0.7733. The “CMV-LACZ in Myotubes, signal relative to DMSO” value ([3]; 40 uM) was 0.9509.

Cc1cc(C)cc(-n2nnc(C(=O)NCc3ccccc3Cl)c2N)c1 [MLS000094770-01] was tested, and the “Burkin Assay in Myoblasts, value relative to DMSO” value ([1]; 0.5 uM) was 1.021, the “Burkin Assay in Myoblasts, value relative to DMSO” value ([1]; 1 uM) was 0.9676 and the “Burkin Assay in Myoblasts, value relative to DMSO” value ([1]; 5 uM) was 0.9491. For the same molecule, the “Burkin Assay in Myoblasts, value relative to DMSO” value ([1]; 10 uM) was 0.9866, the “Burkin Assay in Myoblasts, value relative to DMSO” value ([1]; 20 uM) was 0.7999 and the “Burkin Assay in Myoblasts, value relative to DMSO” value ([1]; 40 uM) was 0.6762. The “Burkin Assay in Myotubes (signal relative to DMSO)” value ([2]; 0.5 uM) was 1.14, the “Burkin Assay in Myotubes (signal relative to DMSO)” value ([2]; 1 uM) was 1 and the “Burkin Assay in Myotubes (signal relative to DMSO)” value ([2]; 5 uM) was 1.317. For the same molecule, the “Burkin Assay in Myotubes (signal relative to DMSO)” value ([2]; 10 uM) was 0.823, the “Burkin Assay in Myotubes (signal relative to DMSO)” value ([2]; 20 uM) was 0.8175 and the “Burkin Assay in Myotubes (signal relative to DMSO)” value ([2]; 40 uM) was 0.7119. The “CMV-LACZ in Myotubes, signal relative to DMSO” value ([3]; 5 uM) was 0.8081, the “CMV-LACZ in Myotubes, signal relative to DMSO” value ([3]; 10 uM) was 0.9406 and the “CMV-LACZ in Myotubes, signal relative to DMSO” value ([3]; 20 uM) was 0.9412. For the same molecule, the “CMV-LACZ in Myotubes, signal relative to DMSO” value ([3]; 40 uM) was 0.8421.

In the case of Cc1cc(-c2ccccc2)n2nc(N)nc2n1 [MLS000122180-01], the “Burkin Assay in Myoblasts, value relative to DMSO” value ([1]; 0.5 uM) is reported as 0.8023, the “Burkin Assay in Myoblasts, value relative to DMSO” value ([1]; 1 uM) is reported as 0.8424 and the “Burkin Assay in Myoblasts, value relative to DMSO” value ([1]; 5 uM) is reported as 0.9726. The “Burkin Assay in Myoblasts, value relative to DMSO” value ([1]; 10 uM) was 0.9665, the “Burkin Assay in Myoblasts, value relative to DMSO” value ([1]; 20 uM) was 1.004 and the “Burkin Assay in Myoblasts, value relative to DMSO” value ([1]; 40 uM) was 0.9116. For the same molecule, the “Burkin Assay in Myotubes (signal relative to DMSO)” value ([2]; 0.5 uM) was 1.006, the “Burkin Assay in Myotubes (signal relative to DMSO)” value ([2]; 1 uM) was 0.9341 and the “Burkin Assay in Myotubes (signal relative to DMSO)” value ([2]; 5 uM) was 1.027. For the same molecule, the “Burkin Assay in Myotubes (signal relative to DMSO)” value ([2]; 10 uM) was 0.7456, the “Burkin Assay in Myotubes (signal relative to DMSO)” value ([2]; 20 uM) was 0.9557 and the “Burkin Assay in Myotubes (signal relative to DMSO)” value ([2]; 40 uM) was 0.9496. For the same molecule, the “CMV-LACZ in Myotubes, signal relative to DMSO” value ([3]; 5 uM) was 0.7773, the “CMV-LACZ in Myotubes, signal relative to DMSO” value ([3]; 10 uM) was 0.8808 and the “CMV-LACZ in Myotubes, signal relative to DMSO” value ([3]; 20 uM) was 0.8136. For the same molecule, the “CMV-LACZ in Myotubes, signal relative to DMSO” value ([3]; 40 uM) was 1.007.

In the case of O=C(c1cccs1)N(Cc1ccco1)c1nc(-c2ccc(F)cc2)cs1 [MLS000122749-01], the “Burkin Assay in Myoblasts, signal relative to DMSO” value ([1]; 0.5 uM) is reported as 1.113, the “Burkin Assay in Myoblasts, signal relative to DMSO” value ([1]; 1 uM) is reported as 1.04 and the “Burkin Assay in Myoblasts, signal relative to DMSO” value ([1]; 5 uM) is reported as 1.026. For the same molecule, the “Burkin Assay in Myoblasts, signal relative to DMSO” value ([1]; 10 uM) was 1.116, the “Burkin Assay in Myoblasts, signal relative to DMSO” value ([1]; 20 uM) was 1.185 and the “Burkin Assay in Myoblasts, signal relative to DMSO” value ([1]; 40 uM) was 0.948. The “Burkin Assay in Myotubes, α7 integrin LacZ reporter signal relative to DMSO” value ([2]; 0.5 uM) was 1.042, the “Burkin Assay in Myotubes, α7 integrin LacZ reporter signal relative to DMSO” value ([2]; 1 uM) was 0.9982 and the “Burkin Assay in Myotubes, α7 integrin LacZ reporter signal relative to DMSO” value ([2]; 5 uM) was 1.096. The “Burkin Assay in Myotubes, α7 integrin LacZ reporter signal relative to DMSO” value ([2]; 10 uM) was 1.131, the “Burkin Assay in Myotubes, α7 integrin LacZ reporter signal relative to DMSO” value ([2]; 20 uM) was 1.256 and the “Burkin Assay in Myotubes, α7 integrin LacZ reporter signal relative to DMSO” value ([2]; 40 uM) was 0.9306. For the same molecule, the “CMV-LACZ in Myotubes, signal relative to DMSO” value ([3]; 5 uM) was 1.022, the “CMV-LACZ in Myotubes, signal relative to DMSO” value ([3]; 10 uM) was 1.063 and the “CMV-LACZ in Myotubes, signal relative to DMSO” value ([3]; 20 uM) was 0.808. The “CMV-LACZ in Myotubes, signal relative to DMSO” value ([3]; 40 uM) was 1.0025.

With CCCC(=O)[O-].[Na+] [sodium butyrate, reference compound] the β-galactosidase levels ([2]; treatments of ~1.5 mM, preliminary screens) was “increase β-galactosidase levels”.

From patent US9980943B2, “Methods of treating muscular dystrophy” (BOARD OF REGENTS OF THE NEVADA SYSTEM OF HIGHER EDUCATION, …, priority 2013, dated 2018)
